Measurements published in patent US5814654A, “Substituted guanidine derivatives” (Sumitomo Pharmaceuticals Company, Limited, priority 1996, dated 1998).

Each molecule was assayed against T1, Na+/H+ exchange transport system (Rattus norvegicus, UniProt P26431) (assay: Inhibitory effect on the Na+/H+ exchange transport system (in vitro), change in intracellular pH during acid loading). Conditions: vascular smooth muscle cells isolated from the rat thoracic aorta.
T1 construct: using the vascular smooth muscle cells isolated from the rat thoracic aorta; endogenous in cells; host or cells: vascular smooth muscle cells isolated from the rat thoracic aorta
Assay type: cell-based
Procedure: Inhibitory effect on the Na+/H+ exchange transport system (in vitro)
The test was carried out according to the method of Yamori et al. (J. Hypertension, 8, 153 (1990)). In detail, inhibitory effect on the Na+/H+ exchange transport system was evaluated by the change in intracellular pH during acid loading, using the vascular smooth muscle cells isolated from the rat thoracic aorta.

T1 sequence (P26431 whole entry): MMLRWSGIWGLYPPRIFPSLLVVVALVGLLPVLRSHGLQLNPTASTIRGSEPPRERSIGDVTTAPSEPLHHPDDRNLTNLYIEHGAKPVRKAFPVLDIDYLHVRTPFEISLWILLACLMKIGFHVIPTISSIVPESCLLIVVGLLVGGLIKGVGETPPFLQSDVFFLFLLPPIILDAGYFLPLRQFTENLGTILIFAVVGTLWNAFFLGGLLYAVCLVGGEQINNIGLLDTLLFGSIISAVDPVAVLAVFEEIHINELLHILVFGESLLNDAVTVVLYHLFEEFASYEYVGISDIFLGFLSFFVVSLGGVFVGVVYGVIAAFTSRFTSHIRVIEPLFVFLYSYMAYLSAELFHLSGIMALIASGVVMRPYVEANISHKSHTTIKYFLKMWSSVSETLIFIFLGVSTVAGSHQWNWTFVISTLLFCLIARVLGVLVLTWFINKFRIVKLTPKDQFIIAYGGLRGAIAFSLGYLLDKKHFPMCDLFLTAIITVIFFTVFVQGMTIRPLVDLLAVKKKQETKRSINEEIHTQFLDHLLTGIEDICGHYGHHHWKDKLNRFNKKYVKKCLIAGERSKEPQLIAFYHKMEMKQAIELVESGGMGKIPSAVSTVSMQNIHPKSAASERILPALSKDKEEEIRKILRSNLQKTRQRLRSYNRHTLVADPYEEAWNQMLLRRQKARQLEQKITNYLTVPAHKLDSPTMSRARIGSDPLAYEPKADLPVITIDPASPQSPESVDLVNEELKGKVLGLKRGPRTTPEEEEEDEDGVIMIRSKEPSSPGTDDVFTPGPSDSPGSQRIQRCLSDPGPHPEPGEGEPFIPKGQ

| IC50 [µM] | SMILES |
| --- | --- |
| 4 | NC(N)=NC(=O)c1[nH]c2cccc3c2c1CCC3=O [Example 1, N-(aminoiminomethyl)-1,3,4,5-tetrahydro-5-oxo-benz[cd]indole-2-carboxamidemethanesulfonate] |
| 0.15 | Cn1c(C(=O)N=C(N)N)c2c3c(cccc31)CCC2 [Example 2, N-(aminoiminomethyl)-1,3,4,5-tetrahydro-1-methyl-benz[cd]indole-2-carboxamide methanesulfonate] |
| 0.7 | NC(N)=NC(=O)c1[nH]c2cccc3c2c1CCC3 [Example 3, N-(aminoiminomethyl)-1,3,4,5-tetrahydro-benz[cd]indole-2-carboxamide methanesulfonate] |
